Data on eleven compounds can be found in ChEMBL document CHEMBL1806422, “Effects of C7 substitutions in a high affinity microtubule-binding taxane on antitumor activity and drug transport” (Bioorg Med Chem Lett, 2011).

Each structure is given as a SMILES string.

A word on the Papp B→A: it is the apparent permeability from the basolateral to the apical side of a cell layer. As usually defined, the Papp A→B is the apparent permeability from the apical to the basolateral side of a cell layer. Broadly, the Kd is the concentration at which binding is half-saturated. Read a low Kd as a tighter complex. For orientation: IC50 means the concentration that gives 50% inhibition. By efflux ratio is commonly meant the permeability from basolateral to apical divided by that in the opposite direction, in the common usage.

The nature of data set [1]: Apparent permeability from basolateral to apical side of human Caco2 cells at 10 uM by LC/MS/MS analysis. The data set is classed as ADME, cell-based. The settings on record: Caco-2.
Data set [2] is described as follows: Apparent permeability from apical to basolateral side of human Caco2 cells at 10 uM by LC/MS/MS analysis. The data set is classed as ADME, cell-based. To be noted: Caco-2. On the technique in general: Passage across Caco-2 layers is used to estimate intestinal permeability.
The nature of data set [3]: Binding affinity to microtubule after 30 mins by epothilone-B competition binding assay.
A short description of data set [4]: Binding affinity to purified p-glycoprotein by fluorescence quenching assay.
In data set [5] the test system is A2780. Description: Cytotoxicity against human A2780 cells after 48 hrs by MTT assay. The data set is classed as functional, cell-based. To be noted: A2780, 48 h. On the technique in general: Tetrazolium dyes change colour on reduction, which living cells bring about.
Data set [6] is described as follows: Efflux ratio of permeability from basolateral to apical side to apical to basolateral side in human Caco2 cells at 10 uM by LC/MS/MS analysis. Format: ADME, cell-based. To be noted: Caco-2.
Data set [7] relates to A2780. Kind of data set: Resistant index, ratio of IC50 for multidrug-resistant human A2780AD cells overexpressing p-gp to IC50 for human A2780 cells. The data set is classed as functional.
Data set [8] can be described thus: Cytotoxicity against multidrug-resistant human A2780AD cells overexpressing p-gp after 48 hrs by MTT assay. Format: functional, cell-based. The settings on record: A2780 ADR.

As to `C/C=C(\C)C(=O)N[C@@H](c1ccccc1)[C@@H](O)C(=O)O[C@H]1C[C@@]2(O)[C@@H](OC(=O)c3cccc(N=[N+]=[N-])c3)[C@@H]3[C@]4(OC(C)=O)CO[C@@H]4C[C@H](OC(=O)C4CC4)[C@@]3(C)C(=O)[C@H](O)C(=C1C)C2(C)C`, the apparent permeability from basolateral to apical (Papp B→A) at 10 µM in data set [1] turned out to be 9.4 ×10⁻⁶ cm/s. In addition, the Papp A→B at 10 µM in data set [2] was found to be 7.35 ×10⁻⁶ cm/s. Also, the values for the dissociation constant (Kd) in data set [3] and in data set [4] were 0.95 nM and 2150 nM, respectively. Further, the figures for the IC50 (in the data set with A2780 [5]; in data set [8]) were 22 nM and 293 nM, respectively. In addition, the efflux ratio at 10 µM in data set [6] was 1.28. Moreover, in the data set with A2780 [7], the “Ratio IC50” value amounted to 13.3.

Turning to `C/C=C(\C)C(=O)N[C@@H](c1ccccc1)[C@@H](O)C(=O)O[C@H]1C[C@@]2(O)[C@@H](OC(=O)c3cccc(N=[N+]=[N-])c3)[C@@H]3[C@]4(OC(C)=O)CO[C@@H]4C[C@H](OC(=O)CCl)[C@@]3(C)C(=O)[C@H](O)C(=C1C)C2(C)C`, the basolateral-to-apical permeability (Papp B→A) at 10 µM in data set [1] was 1.07 ×10⁻⁶ cm/s. In data set [2], the Papp A→B at 10 µM worked out at 0.19 ×10⁻⁶ cm/s. For the same compound, the values for the Kd in data set [3] and in data set [4] were 0.62 nM and 2750 nM, respectively. In addition, the concentration for half-maximal inhibition (IC50) was 17.2 nM with A2780 [5] and 710 nM in data set [8]. The efflux ratio at 10 µM in data set [6] was 5.63. In addition, the “Ratio IC50” value in the data set with A2780 [7] was 41.2.

Take `C/C=C(\C)C(=O)N[C@@H](c1ccccc1)[C@@H](O)C(=O)O[C@H]1C[C@@]2(O)[C@@H](OC(=O)c3cccc(N=[N+]=[N-])c3)[C@@H]3[C@]4(OC(C)=O)CO[C@@H]4C[C@H](OC(=O)CNC(=O)OC(C)(C)C)[C@@]3(C)C(=O)[C@H](O)C(=C1C)C2(C)C`: the apparent permeability from basolateral to apical (Papp B→A) at 10 µM in data set [1] is 8.53 ×10⁻⁶ cm/s. For the same compound, in data set [2], the apparent permeability from apical to basolateral (Papp A→B) at 10 µM was found to be 1.23 ×10⁻⁶ cm/s. Besides, the values for the Kd in data set [3] and in data set [4] were 0.81 nM and 6340 nM, respectively. Also, the figures for the concentration for half-maximal inhibition (IC50) (in the data set with A2780 [5]; in data set [8]) were 15.5 nM and 875 nM, respectively. In addition, the efflux ratio at 10 µM in data set [6] came to 6.93. For the same compound, in the data set on A2780 [7], the “Ratio IC50” value worked out at 56.4.

Consider `C/C=C(\C)C(=O)N[C@@H](c1ccccc1)[C@@H](O)C(=O)O[C@H]1C[C@@]2(O)[C@@H](OC(=O)c3cccc(N=[N+]=[N-])c3)[C@@H]3[C@]4(OC(C)=O)CO[C@@H]4C[C@H](OC(=O)OCC)[C@@]3(C)C(=O)[C@H](O)C(=C1C)C2(C)C`, for which the Papp B→A at 10 µM in data set [1] worked out at 12.6 ×10⁻⁶ cm/s. Besides, in data set [2], the Papp A→B at 10 µM was 7.46 ×10⁻⁶ cm/s. Further, the dissociation constant Kd in data set [3] is 0.9 nM; in data set [4] it was 1420 nM. The figures for the IC50 (in the data set on A2780 [5]; in data set [8]) were 11.2 nM and 170 nM, respectively. Further, the efflux ratio at 10 µM in data set [6] turned out to be 1.68. In addition, the “Ratio IC50” value in the data set on A2780 [7] stood at 15.2.

As to `C/C=C(\C)C(=O)N[C@@H](c1ccccc1)[C@@H](O)C(=O)O[C@H]1C[C@@]2(O)[C@@H](OC(=O)c3cccc(N=[N+]=[N-])c3)[C@@H]3[C@]4(OC(C)=O)CO[C@@H]4C[C@H](OC(=O)NC)[C@@]3(C)C(=O)[C@H](O)C(=C1C)C2(C)C`, the apparent permeability from basolateral to apical (Papp B→A) at 10 µM in data set [1] was determined as 19.1 ×10⁻⁶ cm/s. Further, in data set [2], the apparent permeability from apical to basolateral (Papp A→B) at 10 µM is 2.55 ×10⁻⁶ cm/s. Moreover, the Kd in data set [3] came to 2.15 nM; in data set [4], 3150 nM. Moreover, the half-inhibitory concentration (IC50) with A2780 [5] is 7.4 nM; in data set [8], 1400 nM. Further, the efflux ratio at 10 µM in data set [6] was determined as 7.48. The “Ratio IC50” value with A2780 [7] is 189.2.

Take `C/C=C(\C)C(=O)N[C@@H](c1ccccc1)[C@@H](O)C(=O)O[C@H]1C[C@@]2(O)[C@@H](OC(=O)c3cccc(N=[N+]=[N-])c3)[C@@H]3[C@]4(OC(C)=O)CO[C@@H]4C[C@H](OC(=O)N(C)C)[C@@]3(C)C(=O)[C@H](O)C(=C1C)C2(C)C`: the values for the Kd in data set [3] and in data set [4] were 2.45 nM and 5290 nM, respectively. In addition, the IC50 is 26 nM in the data set on A2780 [5] and 950 nM in data set [8]. Besides, the “Ratio IC50” value in the data set with A2780 [7] is 36.5.

Consider `CC(=O)O[C@H]1C(=O)[C@@]2(C)[C@H]([C@H](OC(=O)c3ccccc3)[C@]3(O)C[C@H](OC(=O)[C@H](O)[C@@H](NC(=O)c4ccccc4)c4ccccc4)C(C)=C1C3(C)C)[C@]1(OC(C)=O)CO[C@@H]1C[C@@H]2O` [PACLITAXEL], for which, in data set [1], the Papp B→A at 10 µM was determined as 5.03 ×10⁻⁶ cm/s. Moreover, the Papp A→B at 10 µM in data set [2] was found to be 0.66 ×10⁻⁶ cm/s. In addition, the equilibrium dissociation constant (Kd) in data set [3] is 56 nM; in data set [4], 35 nM. Moreover, the IC50 with A2780 [5] came out at 0.62 nM; in data set [8] it was 1900 nM. Moreover, the efflux ratio at 10 µM in data set [6] worked out at 7.62. The “Ratio IC50” value in the data set on A2780 [7] stood at 3064.

In the case of `C/C=C(\C)C(=O)N[C@@H](c1ccccc1)[C@@H](O)C(=O)O[C@H]1C[C@@]2(O)[C@@H](OC(=O)c3cccc(N=[N+]=[N-])c3)[C@@H]3[C@]4(OC(C)=O)CO[C@@H]4C[C@H](OC(=O)CC)[C@@]3(C)C(=O)[C@H](O)C(=C1C)C2(C)C`, the Papp B→A at 10 µM in data set [1] came out at 0.265 ×10⁻⁶ cm/s. In addition, the Papp A→B at 10 µM in data set [2] came to 0.095 ×10⁻⁶ cm/s. Also, the values for the dissociation constant (Kd) in data set [3] and in data set [4] were 1.1 nM and 498 nM, respectively. Besides, the 50% inhibitory concentration (IC50) in the data set on A2780 [5] was found to be 2.7 nM; in data set [8] it was 14 nM. Moreover, the efflux ratio at 10 µM in data set [6] stood at 2.79. Besides, in the data set on A2780 [7], the “Ratio IC50” value is given as 5.2.

As for `C/C=C(\C)C(=O)N[C@@H](c1ccccc1)[C@@H](O)C(=O)O[C@H]1C[C@@]2(O)[C@@H](OC(=O)c3cccc(N=[N+]=[N-])c3)[C@@H]3[C@]4(OC(C)=O)CO[C@@H]4C[C@H](OC(=O)CN(C)C)[C@@]3(C)C(=O)[C@H](O)C(=C1C)C2(C)C`, the Papp B→A at 10 µM in data set [1] was 27 ×10⁻⁶ cm/s. Also, the Papp A→B at 10 µM in data set [2] amounted to 4.19 ×10⁻⁶ cm/s. Besides, the Kd amounted to 1.48 nM in data set [3] and 2380 nM in data set [4]. In addition, the figures for the concentration for half-maximal inhibition (IC50) (with A2780 [5]; in data set [8]) were 7.2 nM and 3200 nM, respectively. Besides, in data set [6], the efflux ratio at 10 µM was 6.44. Moreover, in the data set with A2780 [7], the “Ratio IC50” value is 444.4.

With `C/C=C(\C)C(=O)N[C@@H](c1ccccc1)[C@@H](O)C(=O)O[C@H]1C[C@@]2(O)[C@@H](OC(=O)c3cccc(N=[N+]=[N-])c3)[C@@H]3[C@]4(OC(C)=O)CO[C@@H]4C[C@H](OC(=O)CC(F)(F)F)[C@@]3(C)C(=O)[C@H](O)C(=C1C)C2(C)C`, in data set [1], the Papp B→A at 10 µM was 6.61 ×10⁻⁶ cm/s. Moreover, the apparent permeability from apical to basolateral (Papp A→B) at 10 µM in data set [2] amounted to 3 ×10⁻⁶ cm/s. The figures for the Kd in data set [3] and in data set [4] were 0.66 nM and 4310 nM, respectively. For the same compound, the IC50 worked out at 33 nM with A2780 [5] and 1300 nM in data set [8]. Moreover, the efflux ratio at 10 µM in data set [6] turned out to be 2.2. Besides, the “Ratio IC50” value in the data set with A2780 [7] came to 39.4.

On to `CC(C)NCC(O)COc1cccc2ccccc12` (stereo not given) [PROPRANOLOL], for which the basolateral-to-apical permeability (Papp B→A) at 10 µM in data set [1] was found to be 23.4 ×10⁻⁶ cm/s. Moreover, in data set [2], the Papp A→B at 10 µM came out at 19.2 ×10⁻⁶ cm/s. In data set [6], the efflux ratio at 10 µM was 1.21.
